Test results reported in patent US20230263807A1, “TREPROSTINIL ILOPROST COMBINATION THERAPY” (United Therapeutics Corporation, priority 2022, published 2023).
Like-named read-outs stand apart in the source and are kept apart here.

Protocol: The solubility of iloprost at 100 μg/mL was evaluated at five different pH levels by visual inspection and HPLC-UV analysis. A stock solution of Iloprost was prepared in ethanol at 1 mg/mL. The stock solution was diluted 10-fold in each buffer and mixed well. The buffered solutions were visually inspected for any precipitation. The buffered solutions were filtered with 0.45 μm nylon filters prior to analysis by HPLC.

Final pH (100 μg/mL Iloprost in 10 mM Acetate, initial pH 5.00): 5.08 | Final pH (100 μg/mL Iloprost in 10 mM Citrate, initial pH 2.89): 2.99 | Final pH (100 μg/mL Iloprost in 10 mM Phosphate, initial pH 6.23): 6.36 | Final pH (100 μg/mL Iloprost in 10 mM Phosphate, initial pH 7.27): 7.42 | Final pH (100 μg/mL Iloprost in 10 mM Phosphate, initial pH 8.60): 8.59 | solubility by chromatographic analysis (pH 2.89): potential solubility issues below pH 6 | visual solubility (pH 2.89): No visual solubility issues
SMILES: CC#CCC(C)[C@H](O)/C=C/[C@@H]1[C@H]2C/C(=C/CCCC(=O)O)C[C@H]2C[C@H]1O (stereo partly shown) [Iloprost]
